The record followed here is US8101583B2, “1,4-benzothiepin-1,1-dioxide derivatives which are substituted with fluorine, method for producing the same, drugs containing said compounds and use thereof” (Sanofi-Aventis Deutschland GmbH, priority 2006, dated 2012).

Structures are written as SMILES.

The experiment has as its target T1, human IBAT (Homo sapiens, UniProt Q12908).
T1 construct: Bases 599 to 1645 correspond to the complete coding region of human IBAT; expressed in transfected cells
T1 sequence (Q12908 1-348): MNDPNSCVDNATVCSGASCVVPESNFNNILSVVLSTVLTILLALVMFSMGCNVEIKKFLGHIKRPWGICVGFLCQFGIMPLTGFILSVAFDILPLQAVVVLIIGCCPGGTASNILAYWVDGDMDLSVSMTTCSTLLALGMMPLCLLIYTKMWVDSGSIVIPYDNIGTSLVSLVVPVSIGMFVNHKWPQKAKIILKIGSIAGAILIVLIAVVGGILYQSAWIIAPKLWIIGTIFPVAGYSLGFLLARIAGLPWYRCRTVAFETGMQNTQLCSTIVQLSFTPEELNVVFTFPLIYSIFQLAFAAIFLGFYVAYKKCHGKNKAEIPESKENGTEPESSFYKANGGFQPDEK
The experiment is described as follows: in vitro IBAT inhibition assay: IBAT-dependent uptake of [3H]-taurocholic acid into CHO-hIBAT cells. In kind it is cell-based. The following applies: taurocholic acid 10 μM, 60 min at room temperature, read-out: IC-50 (human IBAT). From the text:
Preparation and procedure for the in vitro IBAT inhibition assay:
1. Cloning of an Expression Vector for Human IBAT
The cDNA (complementary deoxyribonucleic acid) of human IBAT was cloned by standard methods of molecular biology as described for example in Molecular Cloning: A Laboratory Manual by Joseph Sambrook and David Russell, and introduced into the pcDNA1 vector from Invitrogen. […] Bases 599 to 1645 correspond to the complete coding region of human IBAT.
2. Preparation of a Recombinant Cell Line with Constitutive Expression of Human IBAT
The expression vector for human IBAT was introduced by stable transfection into CHO (chinese hamster ovary) cells. To select single cell clones, 400 μg/ml Geneticin was added to the cell culture medium (Ham's F12 medium supplemented with 10% fetal calf serum, 100 units/ml penicillin, 100 units/ml streptomycin). The functionality of the single cell clones resulting from the selection was assayed via their uptake activity for radiolabeled taurocholic acid ([^3H]-TCA). The cell clone with the highest uptake activity for [^3H]-TCA, referred to hereinafter as CHO-hIBAT, was selected for the further assays and further cultured in the presence of 400 μg/ml Geneticin.
3. Measurement of the Inhibitory Effect of the Compound of the Invention on the IBAT-Dependent Uptake of Taurocholic Acid into Cells
CHO-hIBAT cells were seeded in a concentration of 40 000 cells per well in poly-D-lysine-coated 96-well plates in cell culture medium and cultured for 24 h. The cells were then washed once with sodium-free transport assay buffer (140 mM choline chloride, 2 mM potassium chloride, 1 mM magnesium chloride, 1 mM calcium chloride, 10 mM HEPES/Tris, pH 7.5) and subsequently incubated either with sodium-free transport assay buffer as negative control or with sodium-containing transport assay buffer (140 mM sodium chloride, 2 mM potassium chloride, 1 mM magnesium chloride, 1 mM calcium chloride, 10 mM HEPES/Tris, pH 7.5) as positive control at room temperature for 30 min. At the same time, the assay wells were also incubated in the presence of the compound to be investigated in varying concentration in sodium-containing transport assay buffer at room temperature for 30 min. The test substances were appropriately diluted in transport assay buffer (40 μl/well) starting from a 10 mM stock solution in dimethyl sulfoxide. The assay was then started by adding 10 μl/well of a mixture of radiolabeled taurocholic acid ([^3H]-TCA) and unlabeled taurocholic acid. The final concentration of taurocholic acid in the assay was 10 μM. After an incubation time of 60 min at room temperature, the reaction was stopped by adding 100 μl/well sodium-free transport assay buffer (4° C.), and each well was washed three times with sodium-free transport assay buffer. Finally, 100 μl of scintillation fluid were added to each well, and the radioactivity taken up into the cells was determined in a MicroBeta Scintillation Microplate Reader from Wallac.
The half-maximum inhibitory effect of the test compound (IC50 value, inhibitory concentration 50) was determined in the following way: • 1. Determination of the value for 0% inhibition. This is the measurement in the absence of substance, measured in sodium-containing transport assay buffer. • 2. Determination of the value for 100% inhibition. This is the measurement in the absence of substance, measured in sodium-free transport assay buffer. • 3. […]
For `CCCC[C@]1(CC)CS(=O)(=O)c2ccc(N(C)C)cc2[C@@H](c2cccc(NC(=O)N[C@@H]3O[C@H](CO)C(F)(F)[C@H](O)[C@H]3O)c2)[C@H]1O` [Example 3], the IC50 amounted to 5.3 nM.

Take `CCCC[C@]1(CC)CS(=O)(=O)c2ccc(N(C)C)cc2[C@@H](c2cccc(NC(=O)N[C@@H]3O[C@H](COS(=O)(=O)O)[C@@H](F)[C@H](O)[C@H]3O)c2)[C@H]1O` [Example 2]: the IC50 was 3.9 nM.

On to `CCCC[C@]1(CC)CS(=O)(=O)c2ccc(N(C)C)cc2[C@@H](c2cccc(NC(=O)N[C@@H]3O[C@H](COS(=O)(=O)O)C(F)(F)[C@H](O)[C@H]3O)c2)[C@H]1O` [Example 4], for which the IC50 stood at 3.6 nM.

Take `CCCC[C@]1(CC)CS(=O)(=O)c2ccc(N(C)C)cc2[C@@H](c2cccc(NC(=O)N[C@@H]3O[C@H](CO)[C@@H](F)[C@H](O)[C@H]3O)c2)[C@H]1O` [Example 1]: the IC50 is 6.5 nM.

In the case of `CCCC[C@]1(CC)CS(=O)(=O)c2ccc(N(C)C)cc2[C@@H](c2cccc(NC(=O)N[C@@H]3O[C@H](CS(=O)(=O)O)[C@@H](F)[C@H](O)[C@H]3O)c2)[C@H]1O` [Example 5], the IC50 is 5.6 nM.
